# Source: US10202374B2, “6-aryl-4-phenylamino-quinazoline analogs as phosphoinositide-3-kinase inhibitors” (COUNCIL OF SCIENTIFIC & INDUSTRIAL RESEARCH, priority 2014, dated 2019)
# pIC50: −log10 of the molar value.
# Assays:
# [1] = test system: MCF-7 (breast cancer) cells; assay: MTT cytotoxicity assay, MCF-7; format: cell-based; settings: Homo sapiens, MCF7, 48 h treatment, read-out: Anticancer activity IC50 MCF-7
# Description: (§1) Compounds proposed in present invention were evaluated for their cytotoxic effect against panel of 5 cancer cell line viz. Panc-1 (pancreatic cancer), MCF-7 (breast cancer), PC-3 (prostate), HL-60 (leukemia) and A-375 (melanoma) using MTT assay. In each well of a 96-well plate, 3×10^3 cells were grown in 100 μL of medium. After 24 h, each test molecules were added to achieve a final concentration of 10 to 0.01 μmol/L, respectively. After 48 h of treatment, 20 μL of 2.5 mg/mL MTT (Organics Research, Inc.) solution in phosphate buffer saline was added to each well. […], supernatant was removed and formazan crystals were dissolved in 200 μL of DMSO. Absorbance was then measured at 570 nm using an absorbance plate reader (Bio-Rad Microplate Reader). Data are expressed as the percentage of viable cells in treated relative to non-treated conditions. Each experiment was repeated thrice and data was expressed as mean±SD of three independent experiments (Mordant, P. et al., Mol. Cancer Ther. 2010, 9, 358).
# HL-60 (leukemia) cells = assay: MTT cytotoxicity assay, HL-60; format: cell-based; settings: Homo sapiens, 48 h treatment, read-out: Anticancer activity IC50 HL-60
# Description: as §1
# [2] = test system: Panc-1 (pancreatic cancer) cells; assay: MTT cytotoxicity assay, Panc-1; format: cell-based; settings: Homo sapiens, 48 h treatment, read-out: Anticancer activity IC50 Panc-1
# Description: as §1
# [3] = test system: PC-3 (prostate cancer) cells; assay: MTT cytotoxicity assay, PC-3; format: cell-based; settings: Homo sapiens, 48 h treatment, read-out: Anticancer activity IC50 PC-3
# Description: as §1
# PI3K-α = PI3K-α (Homo sapiens, UniProt P42336); assay: PI3K-α assay (ADP-Glo); format: biochemical; settings: for pIC50: read-out: PI3K inhibition IC50 -α
# Description: The enzyme is assayed for 80 min after which 20 ul of ADP-Glo reagent is added. After a further incubation of 40 min, 40 ul of Kinase Detection Buffer is added. The assays are incubated for 40 min and then read on PerkinElmer Envision for 1 sec/well.
# A-375 (melanoma) cells = assay: MTT cytotoxicity assay, A375; format: cell-based; settings: Homo sapiens, 48 h treatment, read-out: Anticancer activity IC50 A375
# Description: as §1
# PI3K-δ = PI3K-δ (Homo sapiens, UniProt O00329); assay: PI3K-δ assay (ADP-Glo); format: biochemical; settings: for pIC50: read-out: PI3K inhibition IC50 -δ; for Fold-selectivity for PI3K-α with respect to -δ: α versus δ isoform
# Description: Compounds proposed in present invention were evaluated for their inhibitory activity on phosphoinositide-3-kinase-alpha and other isoforms (beta, gamma and delta). […] The protocols used for these bioassays are as follows:
# The enzyme is assayed for 120 min after which 20 ul of ADP-Glo reagent is added. After a further incubation of 40 min, 40 ul of Kinase Detection Buffer is added. The assays are incubated for 40 min and then read on PerkinElmer Envision for 1 sec/well.
# PI3K-γ = PI3K-γ (Homo sapiens, UniProt P48736); assay: PI3K-γ assay (ADP-Glo); format: biochemical; settings: for pIC50: read-out: PI3K inhibition IC50 -γ; for Fold-selectivity for PI3K-α with respect to -γ: α versus γ isoform
# Description: The enzyme is assayed for 75 min after which 20 ul of ADP-Glo reagent is added. After a further incubation of 40 min, 40 ul of Kinase Detection Buffer is added. The assays are incubated for 40 min and then read on PerkinElmer Envision for 1 sec/well.
# PI3K-β = PI3K-β (Homo sapiens, UniProt P42338); assay: PI3K-β assay (ADP-Glo); format: biochemical; settings: for pIC50: read-out: PI3K inhibition IC50 -β; for Fold-selectivity for PI3K-α with respect to -β: α versus β isoform
# PI3K-β, sequence (P42338 whole entry, species assumed, canonical isoform): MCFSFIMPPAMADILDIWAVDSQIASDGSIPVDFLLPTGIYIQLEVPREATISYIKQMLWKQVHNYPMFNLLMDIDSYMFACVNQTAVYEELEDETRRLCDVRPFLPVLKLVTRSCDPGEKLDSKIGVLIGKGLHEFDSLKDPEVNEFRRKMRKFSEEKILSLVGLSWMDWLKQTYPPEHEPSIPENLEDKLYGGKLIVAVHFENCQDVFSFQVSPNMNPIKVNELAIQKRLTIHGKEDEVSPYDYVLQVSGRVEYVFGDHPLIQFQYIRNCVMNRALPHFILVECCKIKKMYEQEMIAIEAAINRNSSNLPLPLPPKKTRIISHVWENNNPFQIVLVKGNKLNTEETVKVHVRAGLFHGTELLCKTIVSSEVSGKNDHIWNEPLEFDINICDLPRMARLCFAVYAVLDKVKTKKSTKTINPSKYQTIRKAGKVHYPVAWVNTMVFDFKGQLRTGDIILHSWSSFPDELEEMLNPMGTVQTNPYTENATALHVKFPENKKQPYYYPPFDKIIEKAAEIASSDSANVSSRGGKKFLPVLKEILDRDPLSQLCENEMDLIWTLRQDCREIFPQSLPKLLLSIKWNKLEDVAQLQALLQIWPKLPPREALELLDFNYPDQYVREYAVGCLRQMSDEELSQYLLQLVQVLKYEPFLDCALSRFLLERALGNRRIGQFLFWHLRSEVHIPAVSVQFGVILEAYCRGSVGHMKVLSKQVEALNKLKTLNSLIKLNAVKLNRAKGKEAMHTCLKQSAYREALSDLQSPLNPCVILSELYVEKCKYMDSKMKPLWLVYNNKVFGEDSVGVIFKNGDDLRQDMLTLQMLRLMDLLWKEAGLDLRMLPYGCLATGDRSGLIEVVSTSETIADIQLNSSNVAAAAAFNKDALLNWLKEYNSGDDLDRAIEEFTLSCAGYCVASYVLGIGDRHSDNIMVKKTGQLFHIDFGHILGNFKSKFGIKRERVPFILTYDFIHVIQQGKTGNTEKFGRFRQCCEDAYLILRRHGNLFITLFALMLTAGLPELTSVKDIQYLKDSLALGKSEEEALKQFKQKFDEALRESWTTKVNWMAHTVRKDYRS
# PI3K-β, sequence (P27986 whole entry partner, species assumed, canonical isoform): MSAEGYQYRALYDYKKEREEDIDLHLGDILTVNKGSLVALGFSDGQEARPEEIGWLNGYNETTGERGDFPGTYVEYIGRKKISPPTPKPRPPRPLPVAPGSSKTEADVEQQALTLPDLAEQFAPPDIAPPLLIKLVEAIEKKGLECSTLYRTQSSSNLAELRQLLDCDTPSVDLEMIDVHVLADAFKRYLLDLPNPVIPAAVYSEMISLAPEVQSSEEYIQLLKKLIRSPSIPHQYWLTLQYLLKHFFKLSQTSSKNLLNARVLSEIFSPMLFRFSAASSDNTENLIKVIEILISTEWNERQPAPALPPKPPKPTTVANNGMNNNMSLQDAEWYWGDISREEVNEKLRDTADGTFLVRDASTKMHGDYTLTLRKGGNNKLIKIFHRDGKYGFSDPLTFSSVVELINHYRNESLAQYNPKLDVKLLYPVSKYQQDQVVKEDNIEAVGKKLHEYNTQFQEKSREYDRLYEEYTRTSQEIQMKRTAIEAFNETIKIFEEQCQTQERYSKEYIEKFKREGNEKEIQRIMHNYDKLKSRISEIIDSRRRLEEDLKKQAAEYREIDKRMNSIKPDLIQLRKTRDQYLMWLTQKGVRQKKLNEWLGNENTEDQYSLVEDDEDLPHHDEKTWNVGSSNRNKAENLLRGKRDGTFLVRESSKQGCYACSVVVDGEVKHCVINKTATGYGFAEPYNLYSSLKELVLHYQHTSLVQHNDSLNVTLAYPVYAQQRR
# Description: The enzyme is assayed for 60 min after which 20 ul of ADP-Glo reagent is added. After a further incubation of 40 min, 40 ul of kinase detection Buffer is added. The assays are incubated for 40 min and then read on PerkinElmer Envision for 1 sec/well.
# PI3K-α, sequence (P42336 whole entry): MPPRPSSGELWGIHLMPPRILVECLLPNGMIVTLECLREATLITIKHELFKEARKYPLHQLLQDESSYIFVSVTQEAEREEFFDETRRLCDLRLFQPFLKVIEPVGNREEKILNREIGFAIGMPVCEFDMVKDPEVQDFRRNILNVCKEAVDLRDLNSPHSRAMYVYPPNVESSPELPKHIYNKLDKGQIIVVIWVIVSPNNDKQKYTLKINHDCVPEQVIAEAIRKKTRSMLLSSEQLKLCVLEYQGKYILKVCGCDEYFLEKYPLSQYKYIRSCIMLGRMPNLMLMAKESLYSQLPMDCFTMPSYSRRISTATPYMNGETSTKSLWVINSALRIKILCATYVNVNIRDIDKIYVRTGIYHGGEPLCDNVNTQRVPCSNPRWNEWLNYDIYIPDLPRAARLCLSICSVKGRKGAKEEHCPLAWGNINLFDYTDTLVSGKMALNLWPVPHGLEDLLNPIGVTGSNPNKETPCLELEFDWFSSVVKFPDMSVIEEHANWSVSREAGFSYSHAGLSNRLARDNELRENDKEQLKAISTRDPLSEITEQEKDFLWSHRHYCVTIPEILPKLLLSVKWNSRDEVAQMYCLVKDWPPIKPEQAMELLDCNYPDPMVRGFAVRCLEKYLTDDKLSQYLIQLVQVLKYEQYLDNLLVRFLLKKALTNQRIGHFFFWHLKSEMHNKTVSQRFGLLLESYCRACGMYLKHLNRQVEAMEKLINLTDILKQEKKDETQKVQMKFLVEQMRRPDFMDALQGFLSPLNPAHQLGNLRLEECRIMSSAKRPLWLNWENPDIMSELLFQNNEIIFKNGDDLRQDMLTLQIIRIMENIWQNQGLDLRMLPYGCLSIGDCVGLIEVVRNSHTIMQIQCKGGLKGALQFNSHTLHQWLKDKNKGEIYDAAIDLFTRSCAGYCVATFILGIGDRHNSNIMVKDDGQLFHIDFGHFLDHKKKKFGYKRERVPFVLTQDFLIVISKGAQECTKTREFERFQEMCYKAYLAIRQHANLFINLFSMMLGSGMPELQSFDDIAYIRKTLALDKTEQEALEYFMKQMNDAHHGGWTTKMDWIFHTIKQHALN
# PI3K-α, sequence (P27986 whole entry partner): as the sequence (P27986 whole entry partner, species assumed, canonical isoform) above
# PI3K-δ, sequence (O00329 whole entry, species assumed, canonical isoform): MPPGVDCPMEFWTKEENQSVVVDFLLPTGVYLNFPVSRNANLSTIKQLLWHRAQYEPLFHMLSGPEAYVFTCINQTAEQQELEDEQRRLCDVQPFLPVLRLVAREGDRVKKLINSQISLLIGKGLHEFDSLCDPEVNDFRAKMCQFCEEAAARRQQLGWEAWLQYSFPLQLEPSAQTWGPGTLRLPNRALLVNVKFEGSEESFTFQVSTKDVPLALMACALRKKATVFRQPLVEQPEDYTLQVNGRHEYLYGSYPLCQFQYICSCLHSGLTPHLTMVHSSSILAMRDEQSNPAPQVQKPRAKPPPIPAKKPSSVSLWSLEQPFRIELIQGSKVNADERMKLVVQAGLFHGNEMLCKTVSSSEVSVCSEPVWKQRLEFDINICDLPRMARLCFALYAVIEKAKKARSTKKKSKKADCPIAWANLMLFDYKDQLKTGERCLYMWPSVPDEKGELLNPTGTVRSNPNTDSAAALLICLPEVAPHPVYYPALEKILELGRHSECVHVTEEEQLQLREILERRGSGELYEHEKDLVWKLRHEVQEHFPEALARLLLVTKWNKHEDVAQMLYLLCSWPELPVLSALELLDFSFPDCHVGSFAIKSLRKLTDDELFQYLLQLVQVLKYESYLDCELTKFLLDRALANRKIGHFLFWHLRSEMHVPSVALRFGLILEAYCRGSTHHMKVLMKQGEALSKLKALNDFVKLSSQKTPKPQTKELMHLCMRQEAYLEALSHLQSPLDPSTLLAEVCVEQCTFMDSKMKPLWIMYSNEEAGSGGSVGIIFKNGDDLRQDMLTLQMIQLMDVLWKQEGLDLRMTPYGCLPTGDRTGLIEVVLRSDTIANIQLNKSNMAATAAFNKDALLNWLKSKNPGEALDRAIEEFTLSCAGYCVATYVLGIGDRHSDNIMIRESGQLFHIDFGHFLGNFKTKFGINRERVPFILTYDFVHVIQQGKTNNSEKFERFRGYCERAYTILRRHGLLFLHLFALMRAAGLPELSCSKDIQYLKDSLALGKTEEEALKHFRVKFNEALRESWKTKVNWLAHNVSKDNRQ
# PI3K-δ, sequence (P27986 whole entry partner, species assumed, canonical isoform): as the sequence (P27986 whole entry partner, species assumed, canonical isoform) above
# PI3K-γ, sequence (P48736 whole entry, species assumed, canonical isoform): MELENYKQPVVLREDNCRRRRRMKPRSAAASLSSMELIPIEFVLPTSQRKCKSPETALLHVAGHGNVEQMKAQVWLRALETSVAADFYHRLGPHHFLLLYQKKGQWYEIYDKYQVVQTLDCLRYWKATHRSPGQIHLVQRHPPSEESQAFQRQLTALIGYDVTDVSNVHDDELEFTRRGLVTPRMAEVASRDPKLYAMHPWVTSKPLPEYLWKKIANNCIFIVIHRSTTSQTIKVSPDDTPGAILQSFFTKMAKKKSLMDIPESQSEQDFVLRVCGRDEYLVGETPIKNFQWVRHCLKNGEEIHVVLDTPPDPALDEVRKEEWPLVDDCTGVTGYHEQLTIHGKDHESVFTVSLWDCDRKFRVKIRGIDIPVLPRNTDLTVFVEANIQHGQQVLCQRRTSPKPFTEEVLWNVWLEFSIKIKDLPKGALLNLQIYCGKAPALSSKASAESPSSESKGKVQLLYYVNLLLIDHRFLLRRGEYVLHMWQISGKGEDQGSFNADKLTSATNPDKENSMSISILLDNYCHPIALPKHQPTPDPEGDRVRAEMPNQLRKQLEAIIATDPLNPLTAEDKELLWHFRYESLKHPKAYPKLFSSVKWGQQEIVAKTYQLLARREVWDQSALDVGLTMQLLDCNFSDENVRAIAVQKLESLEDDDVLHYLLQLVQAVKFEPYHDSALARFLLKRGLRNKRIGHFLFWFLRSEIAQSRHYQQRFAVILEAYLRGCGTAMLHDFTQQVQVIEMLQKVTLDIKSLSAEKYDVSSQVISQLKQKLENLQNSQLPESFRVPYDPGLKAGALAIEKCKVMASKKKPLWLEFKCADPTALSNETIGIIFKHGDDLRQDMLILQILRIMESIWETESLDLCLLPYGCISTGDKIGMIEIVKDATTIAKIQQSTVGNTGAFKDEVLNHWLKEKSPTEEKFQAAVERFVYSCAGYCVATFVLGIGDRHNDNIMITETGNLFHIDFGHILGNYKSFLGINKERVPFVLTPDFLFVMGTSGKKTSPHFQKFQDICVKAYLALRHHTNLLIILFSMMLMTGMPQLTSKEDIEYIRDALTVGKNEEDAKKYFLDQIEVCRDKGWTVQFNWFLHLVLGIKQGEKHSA
"inhibition at 0.5 µM (PI3K-α; 0.5 μM, preliminary screening) [%]",pIC50 (PI3K-δ),Fold-selectivity for PI3K-α with respect to -δ (PI3K-δ) [fold],pIC50 (PI3K-γ),Fold-selectivity for PI3K-α with respect to -γ (PI3K-γ) [fold],pIC50 (PI3K-β),Fold-selectivity for PI3K-α with respect to -β (PI3K-β) [fold],pIC50 (PI3K-α),"% Inhibition of PI3K-α at 0.5 μM (PI3K-α; 0.5 μM, preliminary screening) [%]",SMILES,pIC50 [1],pIC50 (HL-60 (leukemia) cells),pIC50 [2],pIC50 [3],pIC50 (A-375 (melanoma) cells)
16.4,–,–,–,–,–,–,–,–,"N#CCc1ccc(Nc2ncnc3ccc(-c4ccccc4)cc23)cc1 [Compound 6, 6-phenyl-4-(4-cyanomethyl)phenylamino quinazoline]",4.64,4.49,4.40,4.57,4.62
1.3,–,–,–,–,–,–,–,–,"N#CCc1ccc(Nc2ncnc3ccc(-c4ccccc4C=O)cc23)cc1 [Compound 8, 6-(2-formylphenyl)-4-(4-cyanomethyl)phenylamino quinazoline]",4.04,4.38,4.05,4.68,4.41
–,6.57,2.3,5.74,16,6.17,5.8,6.94,69.9,"N#CCc1ccc(Nc2ncnc3ccc(-c4cccc(O)c4)cc23)cc1 [Compound 10, 6-(3-hydroxyphenyl)-4-(4-cyanomethyl)phenylamino quinazoline]",4.82,4.62,4.44,4.43,4.55
4.1,–,–,–,–,–,–,–,–,"Cc1ccccc1-c1ccc2ncnc(Nc3ccc(CC#N)cc3)c2c1 [Compound 12, 6-(2-methylphenyl)-4-(4-cyanomethyl)phenylamino quinazoline]",< 4.00,4.44,4.17,4.42,4.49
20.3,–,–,–,–,–,–,–,–,"N#CCc1ccc(Nc2ncnc3ccc(-c4ccc(-c5ccccc5)cc4F)cc23)cc1 [Compound 18, 6-(4-phenyl-2-fluorophenyl)-4-(4-cyanomethyl)phenylamino-quinazoline]",4.89,4.80,4.48,4.85,4.49
8.2,–,–,–,–,–,–,–,–,"N#CCc1ccc(Nc2ncnc3ccc(-c4ccc5ccccc5c4)cc23)cc1 [Compound 19, 6-(naphthalen-2-yl)-4-(4-cyanomethyl)phenylamino-quinazoline]",4.80,4.60,4.32,4.66,4.51
29.8,–,–,–,–,–,–,–,–,"N#CCc1ccc(Nc2ncnc3ccc(-c4cc5ccccc5o4)cc23)cc1 [Compound 22, 6-(benzofuran-2-yl)-4-(4-cyanomethyl)phenylamino-quinazoline]",5.05,4.77,4.55,5.10,5.00
2.7,–,–,–,–,–,–,–,–,"N#CCc1ccc(Nc2ncnc3ccc(-c4cc5ccccc5s4)cc23)cc1 [Compound 23, 6-(benzo[b]thiophen-2-yl)-4-(4-cyanomethyl)phenylamino-quinazoline]",5.10,4.85,4.62,4.89,4.85
< 0,–,–,–,–,–,–,–,–,"N#CCc1ccc(Nc2ncnc3ccc(-c4cnc5ccccc5c4)cc23)cc1 [Compound 27, 6-(quinolin-3-yl)-4-(4-cyanomethyl)phenylamino-quinazoline]",4.49,4.36,4.05,4.64,4.05

# More lines, now with the values behind:
SMILES,"inhibition at 0.5 µM (PI3K-α; 0.5 μM, preliminary screening) [%]",pIC50 (PI3K-δ),Fold-selectivity for PI3K-α with respect to -δ (PI3K-δ) [fold],pIC50 (PI3K-γ),Fold-selectivity for PI3K-α with respect to -γ (PI3K-γ) [fold],pIC50 (PI3K-β),Fold-selectivity for PI3K-α with respect to -β (PI3K-β) [fold],pIC50 (PI3K-α),"% Inhibition of PI3K-α at 0.5 μM (PI3K-α; 0.5 μM, preliminary screening) [%]",pIC50 [1],pIC50 (HL-60 (leukemia) cells),pIC50 [2],pIC50 [3],pIC50 (A-375 (melanoma) cells)
"N#CCc1ccc(Nc2ncnc3ccc(-c4ccc(F)cc4F)cc23)cc1 [Compound 7, 6-(2,4-difluorophenyl)-4-(4-cyanomethyl)phenylamino quinazoline]",17,–,–,–,–,–,–,–,–,5.00,5.15,4.68,4.55,5.05
"CC(=O)c1ccc(-c2ccc3ncnc(Nc4ccc(CC#N)cc4)c3c2)cc1 [Compound 9, 6-(4-acetylphenyl)-4-(4-cyanomethyl)phenylamino quinazoline]",44,< 5.00,>37,6.82,0.5,< 5.00,>37,6.57,–,4.35,4.55,4.89,4.62,4.49
"N#CCc1ccc(Nc2ncnc3ccc(-c4cccc([N+](=O)[O-])c4)cc23)cc1 [Compound 11, 6-(3-nitrophenyl)-4-(4-cyanomethyl)phenylamino quinazoline]",38.1,< 5.00,>22.2,6.07,1.9,< 5.00,>22.2,6.35,–,4.92,4.82,5.15,4.54,4.64
"C=Cc1ccc(-c2ccc3ncnc(Nc4ccc(CC#N)cc4)c3c2)cc1 [Compound 13, 6-(4-vinylphenyl)-4-(4-cyanomethyl)phenylamino quinazoline]",36.4,< 5.00,1,6.28,–,< 5.00,1,< 5.00,–,4.96,4.80,4.49,4.47,4.57
"N#CCc1ccc(Nc2ncnc3ccc(-c4ccc(OCc5ccc(F)cc5)cc4)cc23)cc1 [Compound 14, 6-(4-fluorobenzyloxyphen-4-yl)-4-(4-cyanomethyl)phenylamino quinazoline]",11,–,–,–,–,–,–,–,–,4.92,4.85,4.89,4.89,4.80
"N#CCc1ccc(Nc2ncnc3ccc(-c4ccc(-c5ccccc5)cc4)cc23)cc1 [Compound 16, 6-(4-phenylphenyl)-4-(4-cyanomethyl)phenylamino-quinazoline]",< 0,–,–,–,–,–,–,–,–,4.54,4.80,4.52,5.00,4.89
"CCOc1ccc(-c2ccc(-c3ccc4ncnc(Nc5ccc(CC#N)cc5)c4c3)cc2)cc1 [Compound 17, 6-(4-(4-ethoxyphenyl)phenyl)-4-(4-cyanomethyl)phenylamino-quinazoline]",< 0,–,–,–,–,–,–,–,–,4.59,4.80,4.48,4.77,4.52
"N#CCc1ccc(Nc2ncnc3ccc(-c4cccc5c4oc4ccccc45)cc23)cc1 [Compound 24, 6-(dibenzo(b,d)furan-4-yl)-4-(4-cyanomethyl)phenylamino-quinazoline]",1.5,–,–,–,–,–,–,–,–,4.57,4.92,4.51,4.80,4.44
"N#CCc1ccc(Nc2ncnc3ccc(-c4cccc5c4sc4ccccc45)cc23)cc1 [Compound 25, 6-(dibenzo(b,d)thiophene-4-yl)-4-(4-cyanomethyl)phenylamino-quinazoline]",< 0,–,–,–,–,–,–,–,–,4.47,4.51,4.48,4.74,4.47
